Results as given in paper PMC6220303 (EMBO Molecular Medicine, 2018).
Each block holds one molecule with its values, some of them ahead of it.

How the values were obtained:
rat = tested on: rat; parameters: method as in May et al, 2011; Fielden et al, 2015; details: ref May et al, 2011; Fielden et al, 2015; cited from earlier work
CatD = tested on: CatD; parameters: method as in Fielden et al, 2015; details: ref Fielden et al, 2015; cited from earlier work
APP‐transgenic mice = tested on: APP‐transgenic mice; parameters: method as in Beckmann et al, 2016; Villarreal et al, 2017; details: ref Beckmann et al, 2016; Villarreal et al, 2017; cited from earlier work
C57/BL6 mice = assay: Hair depigmentation study, 8 weeks dosing; type: in vivo, mouse; details: for % Aβ40 in brain relative to vehicle alone: steady state

Structure (SMILES): CC1(C#Cc2cnc3c(c2)[C@]2(COC(N)=N2)c2cc(-c4cccnc4F)ccc2O3)COC1 [AMG‐8718]
retinal pathology in the rat (rat): retinal degeneration | CatD selectivity in vitro (CatD): > 3,000 fold

Structure (SMILES): C[C@@]1(c2cc(-c3cncnc3)c(F)cc2F)CCSC(N)=N1 [LY2811376]
retinal pathology in the rat (rat): retinal degeneration

start of hair depigmentation (C57/BL6 mice; C57/BL6 mice): 2–3 weeks | hair depigmentation / change in hair color (C57/BL6 mice; male C57/BL6 mice, 8 weeks oral once daily): obvious hair depigmentation in all mice
Structure (SMILES): Cc1cc(C#N)cnc1C(=O)Nc1ccc(F)c([C@]2(C)CO[C@@](C)(C(F)(F)F)C(N)=N2)c1 [NB‐360]
CMH events (APP‐transgenic mice): No CMH events were observed | % Aβ40 in brain relative to vehicle alone (C57/BL6 mice; Dose 9 mg/kg): 66% | % Aβ40 in brain relative to vehicle alone (C57/BL6 mice; Dose 45 mg/kg): 32%

Structure (SMILES): CN1C(=N)N[C@](C)(c2cc(NC(=O)c3ccc(F)cn3)ccc2F)CS1(=O)=O [verubecestat]
CMH events (APP‐transgenic mice): No CMH events were observed
